In data set [1] the test system is HIV-1 transcription. The data set is described as follows: Inhibition of Tat-induced HIV-1 transcription in Ad-Tat-infected CEM GFP reporter cells. It is filed as cell-based. Conditions: for inhibition of HIV-1 transcription in CEM cells: CEM T-cells, 1H4-based library, in words. How it is done:
(§1) Identification of the inhibitory compounds: The library was analyzed for the inhibition of HIV-1 transcription using reporter CEM GFP cells (courtesy of AIDS Reagents Program, NIH) that were infected with adenovirus expressing HIV-1 Tat activator protein (Ad-Tat) as previously described (Nekhai et al., 2007). Infection of CEM-GFP cells with Adeno-Tat induced HIV-1 transcription that was measured as gain of GFP fluorescence (Nekhai et al., 2007). Compounds were added at 25 μM concentration to the Ad-Tat-infected CEM-GFP cells and incubated for 24-48 hours. Cytotoxicity was evaluated by the uptake of propidium iodide (PI).

Another data set has as its system HIV-1 N155H. Nature of the data set: Inhibition of HIV-1 replication, N155H (Table 6). Format: cell-based. As to conditions: read-out: N155H, IC50. How it is done:
(§2) Compounds 1H4, 1E07, B03 and as a control 1G3 were analyzed for inhibition of HIV-1 replication and results are shown in Table 6.

In another data set the test system is HIV-1 Q148R. Nature of the data set: Inhibition of HIV-1 replication, Q148R (Table 6). Conditions: read-out: Q148R, IC50. Format: cell-based. How it is done:
as §2

Another data set has as its system HIV-1 IIIB. Nature of the data set: Inhibition of HIV-1 replication, IIIB (Table 6). It is filed as cell-based. Conditions: for inhibition of HIV-1 replication: Table 6 (IIIB, Q148R, N155H); for IC50: read-out: IIIB, IC50, HIV-1 replication. How it is done:
as §2

A further data set relates to CEM GFP cells. Nature of the data set: Cytotoxicity in CEM cells by uptake of propidium iodide. Format: cell-based. Conditions: 1H4-based library. How it is done: as §1
Identification of addition inhibitors. The 1H4 compound was used to create a second library of compounds that would have similar backbone as 1H4. This second library contained 143 compounds. These compounds were analyzed for the inhibition of HIV-1 transcription and toxicity in CEM T-cells and 293T cells similar as described above for the analysis of the first library.

The subject of data set [2] is Tat-induced HIV-1 transcription. The data set is described as follows: Inhibition of Tat-induced HIV-1 transcription in 293T cells transfected with Tat-expressing vector, HIV-1 LTR-LacZ reporter and CMV-EGFP reporter. Format: cell-based. As to conditions: for inhibition of Tat-induced HIV-1 transcription in 293T cells: in words. How it is done: (§3) The compounds from Table 2 were further evaluated using 293T cells transfected with Tat- and HIV-1 LTR-LacZ. […] Compounds 1H4, 3C8, and 1G3 were further evaluated in 293T cells transfected with Tat-expressing vector, HIV-1 LTR-LacZ reporter and CMV-EGFP reporter. Inhibitory properties of these compounds were evaluated using 293T cells transfected with Tat-expressing vector, HIV-1 LTR-LacZ reporter and CMV-EGFP reporter (Ammosova et al., 2005a). 293T cells were transfected with lipofectamine and then treated with each of the selected compounds for 18 hours. Then the cells were lysed and GFP and β-galactosidase activity was determined as we previously described (Ammosova et al., 2005a). Compound 1H4 was the most inhibitory with IC50=5 μM (FIG. 1B). […] Neither of the compounds was cytotoxic as determined by LDH assay (not shown).

In data set [3] the target is recombinant CDK2/cyclin E (Homo sapiens, UniProt P24941). Nature of the data set: CDK2/cyclin E activity with histone H1. It is filed as biochemical. As to conditions: increasing concentrations; histone H1 substrate. How it is done:
(§4) Competition assays were performed with 4 nM PP1 in glycylglycine buffer. […] To analyze if 1H4 compound has an effect on the activity of CDK2 we incubated recombinant CDK2/cyclin E with histone H1 without or with the addition of increasing concentrations of 1H4.

Data set [4] has as its system HIV-1 transcription. The data set is described as follows: Inhibition of transcription, FIG. 1A (293T cells transfected with Tat- and HIV-1 LTR-LacZ). It is filed as cell-based. How it is done: as §3
The subject of a further data set is recombinant pNL4-3 HIV-1. Nature of the data set: HIV-1 replication in MT4 cells infected with recombinant pNL4-3 HIV-1. Format: cell-based. Conditions: for inhibition of HIV-1 replication: MT4 cells, 1H4 at 10 μM or 25 μM (FIG. 2). How it is done:
HIV-1 replication is inhibited by a small molecular mimetic of QVCF peptide. The 1H4 compound was evaluated to determine whether it could inhibit HIV-1 replication. MT4 cells were infected with recombinant pNL4-3 HIV-1 and treated with different concentrations of 1H4 compound and as a control 1G3 compound.

The subject of another data set is 293T cells. The data set is described as follows: Measurements of cytotoxicity, FIG. 1A. Format: cell-based. How it is done:
as §3

The test system of a further data set is PP1. Nature of the data set: Tat-PP1 competition assay (PP1 activity). It is filed as biochemical. Conditions: for effect on Tat-mediated inhibition of PP1: 50 μM compound, 4 nM PP1, glycylglycine buffer (FIG. 3A). How it is done:
as §4

As for `COc1ccc(C(CNC(=O)CN2CCc3ccccc3C2)c2c[nH]c3ccccc23)cc1` (centres unmarked) [1E07], the “inhibition of HIV-1 transcription in CEM cells” value with HIV-1 transcription [1] was “inhibited HIV-1 transcription”. Moreover, the IC50 was determined as 3.2 µM in the data set on HIV-1 N155H, 1.5 µM in the data set on HIV-1 Q148R and 2.5 µM in the data set on HIV-1 IIIB. Also, in the data set with HIV-1 IIIB, the “inhibition of HIV-1 replication” value was “inhibited HIV-1 replication”. Besides, in the data set with CEM GFP cells, the “toxicity in the propidium iodide uptake assay” value is listed as “not toxic”. Moreover, in data set [2], the “inhibition of Tat-induced HIV-1 transcription in 293T cells” value (“inhibition … in 293T cells” for short) is listed as “inhibited HIV-1 transcription”.
In the case of `COc1ccc(C(CNC(=O)CN2CCc3ccccc3C2)c2c[nH]c3ccccc23)cc1` (centres unmarked) [1H4], the IC50 in the data set with HIV-1 N155H was determined as 8 µM; with HIV-1 Q148R it was 4.7 µM; with HIV-1 IIIB, 9.4 µM; in data set [2] (Human immunodeficiency virus 1, HEK-293T, read-out: Transcription inh. in 293T cells (IC-50)), 5 µM. Further, in [3], the “effect on the activity of CDK2” value is on record as “did not have a significant effect”. The “inhibition of HIV-1 replication” value with HIV-1 IIIB and in the data set on recombinant pNL4-3 HIV-1 was “inhibited HIV-1 replication” each time. For the same molecule, the “inhibition of HIV-1 transcription (FIG. 1A)” value in the data set with HIV-1 transcription [4] is “inhibited HIV-1 transcription”. The “cytotoxicity (FIG. 1A)” value in the data set on 293T cells is given as “not toxic”. In addition, in the data set with PP1, the “effect on Tat-mediated inhibition of PP1” value is recorded as “relieved Tat-mediated inhibition of PP1”.
For `COc1ccc(C(CNC(=O)CN2CCc3ccccc3C2)c2c[nH]c3ccccc23)cc1` (centres unmarked) [B03], in the data set with HIV-1 IIIB, the “inhibition of HIV-1 replication” value was “not inhibitory”. In addition, in data set [2], the “inhibition … in 293T cells” value is “inhibitory”.
Turning to `COc1ccc(C(CNC(=O)CN2CCc3ccccc3C2)c2c[nH]c3ccccc23)cc1` (centres unmarked) [E06], in data set [2], the “inhibition … in 293T cells” value is listed as “inhibitory”.
For the molecule `COc1ccc(C(CNC(=O)CN2CCc3ccccc3C2)c2c[nH]c3ccccc23)cc1` (centres unmarked) [2F02], the “inhibition of HIV-1 transcription in CEM cells” value in the data set on HIV-1 transcription [1] is recorded as “inhibited HIV-1 transcription”. The “inhibition … in 293T cells” value in [2] is recorded as “inhibited HIV-1 transcription”.
For the molecule `COc1ccc(C(CNC(=O)CN2CCc3ccccc3C2)c2c[nH]c3ccccc23)cc1` (centres unmarked) [1G3, reference compound], the IC50 in the data set with HIV-1 N155H came out at 59 µM; with HIV-1 Q148R it was 42 µM; in the data set on HIV-1 IIIB it was 37 µM. Also, the “inhibition of HIV-1 transcription (FIG. 1A)” value in the data set with HIV-1 transcription [4] is “neither inhibitory nor toxic”. In the data set on recombinant pNL4-3 HIV-1 (MT4 cells (FIG. 2)), the “induction of HIV-1 replication” value is reported as “about 2 fold”. Further, the “inhibition of HIV-1 replication” value in the data set on recombinant pNL4-3 HIV-1 was “did not inhibit HIV-1 replication”. For the same molecule, the “cytotoxicity (FIG. 1A)” value with 293T cells is listed as “neither inhibitory nor toxic”. Moreover, the “effect on Tat-mediated inhibition of PP1” value in the data set on PP1 is reported as “did not affect Tat-mediated inhibition of PP1”.
For `CC(OC(=O)c1c2c(nc3ccccc13)/C(=C/c1ccc(Cl)cc1)CC2)C(=O)NC(N)=O` (centres unmarked), in the data set with HIV-1 transcription [1] (cell line not stated, appeared to increase the rate of transcription instead), the “inhibition of HIV-1 transcription” value was “ineffective for inhibition of HIV-1 transcription”.

B1: Tat: HIV-1 Tat protein that binds to the RVxF pocket of PP1 (protein, UniProt P04608 1-86, looked up)
Protein Tat: MEPVDPRLEPWKHPGSQPKTACTNCYCKKCCFHCQVCFITKALGISYGRKKRRQRRRAHQNSQTHQASLSKQPTSQPRGDPTGPKE
As to B1, the “inhibition of PP1” value with PP1 (excess of Tat protein, 4 nM PP1 (FIG. 3A)) is “inhibited PP1”.
